Source: US20050118204A1, “Methods for controlling membrane permeability of a membrane permeable substance and screening methods for a membrane permeable substance” (priority 2003, published 2005)
Each block holds one molecule with its values, some of them ahead of it.

Key:
[1] = system: erythrocytes; test: Influence of osmotic pressure on membrane permeation of Tat Peptide (48-60) into erythrocyte (Test Example 4); format: cell-based, sheep; details: 10 μM, 37° C, 10 minutes; hypotonic versus isotonic phosphate buffer solution
Method: 5 mL of preserved sheep blood (available from Japan Biomaterial Center Co., Ltd.) was placed in a tube, and after subjecting to centrifugal separation (4° C., 3,000 g, 3 min), the supernatant fluid was removed. 5 mL of physiological saline was added thereto, followed by lightly stirring, and then subjected to centrifugal separation (4° C., 3,000 g, 3 min). The same operation was repeated to obtain an erythrocyte pellet. 400 μL of an isotonic phosphate buffer solution was added to 400 μL of the erythrocyte pellet, and after stirring, the mixture was subjected to centrifugal separation (4° C., 3,000 g, 3 min), followed by removing the supernatant fluid. The same operation was repeated to obtain an erythrocyte pellet for evaluation. […] The solution in the Coulter Counter® is replaced by a hypotonic phosphate buffer solution (70% hypotonicity), and the diameter of the erythrocytes floating in the hypotonic phosphate buffer solution was measured in the same manner as in the case of the isotonic phosphate buffer solution. The diameter of the erythrocytes in a hypertonic phosphate buffer solution (130% hypertonicity) was also measured in the same manner. […]
An erythrocyte pellet for evaluation was prepared in the same manner as in Test Example 1. […] The supernatant fluid was measured for fluorescence intensity with a microplate reader or a spectrophotofluorometer. […]

[2] = system: dermal fibroblast; test: Enhancing effect of incorporation of Arg oligomer using substance positively changing membrane curvature (Test Example 5); format: cell-based; details: Arg oligomer 1 μM, 10 minutes
Method: The enhancing effect of incorporation of an Arg oligomer was evaluated by using skin-related cells (dermal fibroblast). Dermal fibroblast (Fibrocell, produced by Kurabo Industries, Ltd.) was seeded on a 6-well plate in an amount of 3×10^4 (cell/well) and cultivated with D-MEM Culture Medium (Dulbecco's modified Eagle medium, containing 10% serum, penicillin: 50 U/mL, streptomycin: 50 μg/mL) for 2 days. After cultivating for 2 days, the culture medium was removed from the wells of the 6-well plate, and D-MEM Culture Medium adjusted to contain 1,3-butanediol in a concentration of 2.5, 5 or 10 mM was added. After incubating for 5 minutes (37° C., 5% CO2), an Arg oligomer was added to the respective plates to a concentration of 1 μM and incubated for 10 minutes. After 10 minutes, the culture medium was removed by suction, and the wells were rinsed twice with an isotonic phosphate buffer solution. 500 μL of 1% Triton X-100 was added to the respective wells, followed by shaking at room temperature under light shielding for 1 hour, to lyse the cells. After thoroughly stirring by pipetting, the contents of the respective cells were transferred by 200 μL to a 96-well black cell, and fluorescence of 535 nm was measured under excitation with a spectrophotofluorometer (microplate reader, Wallac 1420 ARVOsx) at 485 nm.

[3] = system: dermal fibroblast; test: Suppressing effect of incorporation of Arg oligomer using substance negatively changing membrane curvature (Test Example 6); format: cell-based; details: Arg oligomer 1 μM, 10 minutes
Method: The suppressing effect of incorporation of an Arg oligomer was evaluated by using skin-related cells (dermal fibroblast). Dermal fibroblast (Fibrocell, produced by Kurabo Industries, Ltd.) was seeded on a 6-well plate in an amount of 3×10^4 (cell/well) and cultivated with D-MEM Culture Medium (Dulbecco's modified Eagle medium, containing 10% serum, penicillin: 50 U/mL, streptomycin: 50 μg/mL) for 2 days. After cultivating for 2 days, the culture medium was removed from the wells of the 6-well plate, and D-MEM Culture Medium adjusted to contain sucrose in a concentration of 2.5, 5 or 10 mM was added. After incubating for 5 minutes (37° C., 5% CO2), an Arg oligomer was added to the respective plates to a concentration of 1 μM and incubated for 10 minutes. After lapsing 10 minutes, the culture medium was removed by suction, and the contents of the wells were rinsed twice with an isotonic phosphate buffer solution. 500 μL of 1% Triton X-100 was added to the respective wells, followed by shaking at room temperature under light shielding for 1 hour, to lyse the cells. After thoroughly stirring by pipetting, the contents of the respective wells were transferred by 200 μL to a 96-well black cell, and fluorescence of 535 nm was measured under excitation with a spectrophotofluorometer (microplate reader, Wallac 1420 ARVOsx) at 485 nm. The addition of sucrose decreased the fluorescence intensity depending upon the concentration of sucrose by 8% with a sucrose concentration of 2.5 mM, 19% with 5 mM and 37% with 10 mM, in comparison to the case where no sucrose was added. According to the aforementioned experimentation, sucrose is a compound changing the membrane curvature to concave, and it is considered that the change of the membrane suppresses the membrane permeability of the Arg oligomer.

[4] = Phase change of cubic phase of lecithin/sodium cholate system on adding sucrose; format: physicochemical; details: cubic phase of 22.5% water, 50.4% phosphatidylcholine, 27.1% sodium cholate by weight at 25° C
From the text: The suppressing effect of incorporation of an Arg oligomer was investigated upon adding sucrose as a permeation suppressing substance, which was disclosed as a substance negatively changing the membrane curvature in Biochimica et Biophysica Acta (BBA)—Biomembranes, vol. 1285, Issue 1, p. 109-122 (1996). The inventors confirmed that a cubic phase of lecithin/sodium cholate system was constituted by utilizing lecithin (phosphatidylcholine) as a major constitutional component of the phospholipid constituting a cell membrane, and the cubic phase was changed to a hexagonal phase by adding sucrose thereto (as described in Biochim. Biophys. Acta., vol. 125, p. 563-580 (1966)). The phase change was determined by a change of the shape observed by a polarization microscope, the presence or absence of polarization with a polarizing film (a lamellar phase and a hexagonal phase were viewed brightly owing to the polarization thereof, but a cubic phase is viewed darkly), or a difference in spectrum patterns obtained by small angle X-ray scattering. The cubic phase was formed by mixing 22.5% by weight of water, 50.4% by weight of phosphatidylcholine and 27.1% by weight of sodium cholate at 25° C. When sucrose was added to the cubic phase in a proportion of 3.5% by weight or more, the cubic phase was changed to a lamellar phase. […]

Molecule: rhodamine-GABA-GRKKRRQRRRPPQC-NH2.8CF3COOH [Tat Peptide]
- amount of the Tat Peptide which penetrated into the erythrocytes on lowering the osmotic pressure, by fluorescence intensity [1]: increased

Molecule: CC(O)CCO (centres unmarked) [1,3-butanediol]
- increase of fluorescence intensity (Arg oligomer incorporation) versus no addition ([2]; 2.5 mM of added substance): about 15%

- proportion added at which the cubic phase was changed to a lamellar phase [4]: ≥ 3.5 % by weight
Molecule: OC[C@H]1O[C@@](CO)(O[C@H]2O[C@H](CO)[C@@H](O)[C@H](O)[C@H]2O)[C@@H](O)[C@@H]1O [sucrose]
- decrease of fluorescence intensity (Arg oligomer incorporation) versus no sucrose ([3]; sucrose 2.5 mM): 8%
- decrease of fluorescence intensity (Arg oligomer incorporation) versus no sucrose ([3]; sucrose 5 mM): 19%
- decrease of fluorescence intensity (Arg oligomer incorporation) versus no sucrose ([3]; sucrose 10 mM): 37%

Molecule: N#C[S-].[Na+] [sodium thiocyanate]
- increase of fluorescence intensity (Arg oligomer incorporation) versus no addition ([2]; 2.5 mM of added substance): about 10%
- increase of fluorescence intensity (Arg oligomer incorporation) versus no addition ([2]; 10 mM of added substance): about 15%
